Source: patent publication US20220135622A1, “ANTIBACTERIAL PEPTIDES AND METHODS OF USE” (priority 2019, published 2022)
In brackets after ≈: the same amount, converted by molar mass. Where two headings read alike, the source gives them in different places. Square brackets hold non-standard residues; d marks the D form. Peptide text beside a SMILES is read from it. Bip = N[C@@H](Cc1ccc(-c2ccccc2)cc1)C(=O)O; NMeF = CN[C@@H](Cc1ccccc1)C(=O)O; NMeM = CN[C@@H](CCSC)C(=O)O; Pip = O=C(O)[C@@H]1CCCCN1; NMeA = CN[C@@H](C)C(=O)O; Dap = NC[C@H](N)C(=O)O; Aib = CC(C)(N)C(=O)O

Test system: E. coli BW25113
Format: cell-based, Escherichia coli
Experimental: Bacterial growth conditions. LB or Mueller Hinton II cation-adjusted broth (MHB II, BBL 212322) was prepared according to manufacturer's instructions and supplemented with arabinose at 0.02% for overnight growth or at indicated concentrations in the description of the figures. Bacterial cultures were grown at 37° C. When appropriate, media was supplemented with kanamycin (50 μg/mL), carbenicillin (50 μg/mL), chloramphenicol (12.5 or 25 μg/mL), hygromycin (200 μg/mL), and/or gentamicin (10 μg/mL).
Peptide sensitivity and MIC assays. Lyophilized peptides (Smartox Biotechnology, CPC Scientific. ABclonal) were solubilized to 10 mM in Tris buffer, pH 8, prior to making a 2-fold dilution series in MHBII cation adjusted broth with highest final assay concentration of 400-800 μM. Bacteria were grown to log phase and added to final OD600˜0.001. The final EDTA concentration was 0.5 mM for E. coli strains and 0.125 mM for USA300. The final volume of 10 μL/well in a 384 well black, clear bottom plate (Corning) was spun <1 min at <250×g and then incubated at 37° C. After 4 h, an equal volume (10 μL) of BacTiter-Glo™ (Promega) was added to each well and luminescence was read after 5 min on an EnVision plate reader (PerkinElmer). To measure the minimal inhibitory concentrations (MICs), bacteria from fresh overnight plates or log phase cultures were diluted with or without EDTA and peptides as described above to final OD600˜0.0002. Plates were incubated at 37° C. for 20 h before measuring OD600 with an EnVision plate reader.

Row | SMILES | MIC E. coli BW25113 (Table 8) [µM] | MIC E. coli BW25113 (BW25113) [µM]
1 | CSCC[C@@H](C(=O)N[C@@H](CN)C(=O)N[C@@H](Cc1ccccc1)C(=O)N[C@@H](CCCNC(=N)N)C(=O)N[C@@H](CCCNC(=N)N)C(=O)N[C@@H](Cc1ccccc1)C(=O)N[C@@H](CC(C)C)C(=O)N[C@@H](CCC(=O)O)C(=O)N[C@@H](CCCCN)C(=O)N[C@@H](Cc1c[nH]c2ccccc12)C(=O)NCC(=O)N[C@@H](CC(C)C)C(=O)N[C@@H](CC(C)C)C(=O)N[C@@H](CCCNC(=N)N)C(N)=O)N(C)C(=O)[C@@H]1CCCN1C(=O)[C@H](Cc1ccc(O)cc1)NC(C)=O [compound 95] (Ac-YP[NMeM][Dap]FRRFLEKWGLLR-NH2) | 50.0 (≈ 108 µg/mL) | 
2 | CSCC[C@H](NC(=O)[C@H](CN)NC(=O)[C@H](CCSC)N(C)C(=O)[C@@H]1CCCN1C(=O)[C@H](Cc1ccc(O)cc1)NC(C)=O)C(=O)N[C@@H](CCCNC(=N)N)C(=O)N[C@@H](CCCNC(=N)N)C(=O)N[C@@H](Cc1ccccc1)C(=O)N[C@@H](CC(C)C)C(=O)N[C@@H](CCC(=O)O)C(=O)N[C@@H](CCCCN)C(=O)N[C@@H](Cc1c[nH]c2ccccc12)C(=O)NCC(=O)N[C@@H](CC(C)C)C(=O)N[C@@H](CC(C)C)C(=O)N[C@@H](CCCNC(=N)N)C(N)=O [compound 96] (Ac-YP[NMeM][Dap]MRRFLEKWGLLR-NH2) | 50.0 (≈ 107 µg/mL) | 
3 | CSCC[C@@H](C(=O)N[C@@H](CN)C(=O)N(C)[C@@H](C)C(=O)N[C@@H](CCCNC(=N)N)C(=O)N[C@@H](CCCNC(=N)N)C(=O)N[C@@H](Cc1ccccc1)C(=O)N[C@@H](CC(C)C)C(=O)N[C@@H](CCC(=O)O)C(=O)N[C@@H](CCCCN)C(=O)N[C@@H](Cc1c[nH]c2ccccc12)C(=O)NCC(=O)N[C@@H](CC(C)C)C(=O)N[C@@H](CC(C)C)C(=O)N[C@@H](CCCNC(=N)N)C(N)=O)N(C)C(=O)[C@@H]1CCCN1C(=O)[C@H](Cc1ccc(O)cc1)NC(C)=O [compound 97] (Ac-YP[NMeM][Dap][NMeA]RRFLEKWGLLR-NH2) | 200.0 (≈ 418 µg/mL) | 
4 | CSCC[C@@H](C(=O)N[C@@H](CCCNC(=N)N)C(=O)N[C@@H](CCCNC(=N)N)C(=O)N[C@@H](Cc1ccccc1)C(=O)N[C@@H](CC(C)C)C(=O)N[C@@H](CCC(=O)O)C(=O)N[C@@H](CCCCN)C(=O)N[C@@H](Cc1c[nH]c2ccccc12)C(=O)NCC(=O)N[C@@H](CC(C)C)C(=O)N[C@@H](CC(C)C)C(=O)N[C@@H](CCCNC(=N)N)C(N)=O)N(C)C(=O)[C@H](CN)NC(=O)[C@H](CCSC)N(C)C(=O)[C@@H]1CCCN1C(=O)[C@H](Cc1ccc(O)cc1)NC(C)=O [compound 98] (Ac-YP[NMeM][Dap][NMeM]RRFLEKWGLLR-NH2) | 25.0 (≈ 53.8 µg/mL) | 
5 | CC(=O)N[C@@H](Cc1ccc(O)cc1)C(=O)N1CCC[C@H]1C(=O)N(C)[C@@H](Cc1ccccc1)C(=O)N[C@H](C(=O)N(C)[C@@H](C)C(=O)N[C@@H](CCCNC(=N)N)C(=O)N[C@@H](CCCNC(=N)N)C(=O)N[C@@H](Cc1ccccc1)C(=O)N[C@@H](CC(C)C)C(=O)N[C@@H](CCC(=O)O)C(=O)N[C@@H](CCCCN)C(=O)N[C@@H](Cc1c[nH]c2ccccc12)C(=O)NCC(=O)N[C@@H](CC(C)C)C(=O)N[C@@H](CC(C)C)C(=O)N[C@@H](CCCNC(=N)N)C(N)=O)[C@@H](C)O [compound 99] (Ac-YP[NMeF]T[NMeA]RRFLEKWGLLR-NH2) | 200.0 (≈ 425 µg/mL) | 
6 | CSCC[C@@H](C(=O)N[C@@H](CN)C(=O)N(C)[C@@H](Cc1ccccc1)C(=O)N[C@@H](CCCNC(=N)N)C(=O)N[C@@H](CCCNC(=N)N)C(=O)N[C@@H](Cc1ccccc1)C(=O)N[C@@H](CC(C)C)C(=O)N[C@@H](CCC(=O)O)C(=O)N[C@@H](CCCCN)C(=O)N[C@@H](Cc1c[nH]c2ccccc12)C(=O)NCC(=O)N[C@@H](CC(C)C)C(=O)N[C@@H](CC(C)C)C(=O)N[C@@H](CCCNC(=N)N)C(N)=O)N(C)C(=O)[C@@H]1CCCN1C(=O)[C@H](Cc1ccc(O)cc1)NC(C)=O [compound 100] (Ac-YP[NMeM][Dap][NMeF]RRFLEKWGLLR-NH2) | 25.0 (≈ 54.2 µg/mL) | 
7 | CSCC[C@H](NC(=O)[C@H](CN)NC(=O)[C@H](Cc1ccc(O)cc1)NC(C)=O)C(=O)N1CCC[C@H]1C(=O)N[C@@H](Cc1ccccc1)C(=O)N[C@@H](CCCNC(=N)N)C(=O)N[C@@H](CCCNC(=N)N)C(=O)N[C@@H](Cc1ccccc1)C(=O)N[C@@H](CC(C)C)C(=O)N[C@@H](CCC(=O)O)C(=O)N[C@@H](CCCCN)C(=O)N[C@@H](Cc1c[nH]c2ccccc12)C(=O)NCC(=O)N[C@@H](CC(C)C)C(=O)N[C@@H](CC(C)C)C(=O)N[C@@H](CCCNC(=N)N)C(N)=O [compound 102] (Ac-Y[Dap]MPFRRFLEKWGLLR-NH2) |  | 25.0 (≈ 53.5 µg/mL)
8 | CSCC[C@H](NC(=O)[C@H](CN)NC(=O)[C@@H]1CCCN1C(=O)[C@H](Cc1ccc(O)cc1)NC(C)=O)C(=O)N[C@@H](Cc1ccccc1)C(=O)N[C@@H](CCCNC(=N)N)C(=O)N[C@@H](CCCNC(=N)N)C(=O)N[C@@H](Cc1ccccc1)C(=O)N[C@@H](CC(C)C)C(=O)N[C@@H](CCC(=O)O)C(=O)N[C@@H](CCCCN)C(=O)N[C@@H](Cc1c[nH]c2ccccc12)C(=O)NCC(=O)N[C@@H](CC(C)C)C(=O)N[C@@H](CC(C)C)C(=O)N[C@@H](CCCNC(=N)N)C(N)=O [compound 103] (Ac-YP[Dap]MFRRFLEKWGLLR-NH2) |  | <12.5
9 | CSCC[C@H](NC(=O)[C@@H]1CCCN1C(=O)[C@H](Cc1ccc(O)cc1)NC(C)=O)C(=O)N[C@@H](Cc1ccccc1)C(=O)N[C@@H](CN)C(=O)N[C@@H](CCCNC(=N)N)C(=O)N[C@@H](CCCNC(=N)N)C(=O)N[C@@H](Cc1ccccc1)C(=O)N[C@@H](CC(C)C)C(=O)N[C@@H](CCC(=O)O)C(=O)N[C@@H](CCCCN)C(=O)N[C@@H](Cc1c[nH]c2ccccc12)C(=O)NCC(=O)N[C@@H](CC(C)C)C(=O)N[C@@H](CC(C)C)C(=O)N[C@@H](CCCNC(=N)N)C(N)=O [compound 104] (Ac-YPMF[Dap]RRFLEKWGLLR-NH2) | 200 (≈ 428 µg/mL) | 
10 | CSCC[C@H](NC(=O)[C@@H]1CCCN1C(=O)[C@H](Cc1ccc(O)cc1)NC(C)=O)C(=O)N[C@@H](CCCNC(=N)N)C(=O)N[C@@H](Cc1ccccc1)C(=O)N[C@@H](CN)C(=O)N[C@@H](CCCNC(=N)N)C(=O)N[C@@H](Cc1ccccc1)C(=O)N[C@@H](CC(C)C)C(=O)N[C@@H](CCC(=O)O)C(=O)N[C@@H](CCCCN)C(=O)N[C@@H](Cc1c[nH]c2ccccc12)C(=O)NCC(=O)N[C@@H](CC(C)C)C(=O)N[C@@H](CC(C)C)C(=O)N[C@@H](CCCNC(=N)N)C(N)=O [compound 105] (Ac-YPMRF[Dap]RFLEKWGLLR-NH2) |  | 50 (≈ 107 µg/mL)
11 | CSCC[C@H](NC(=O)[C@H](CN)NC(=O)[C@H](CCSC)NC(=O)[C@@H]1CCCN1C(=O)[C@H](CCCNC(=N)N)NC(C)=O)C(=O)N[C@@H](CCCNC(=N)N)C(=O)N[C@@H](CCCNC(=N)N)C(=O)N[C@@H](Cc1ccc(-c2ccccc2)cc1)C(=O)N[C@@H](CC(C)C)C(=O)N[C@@H](C)C(=O)N[C@@H](CCCCN)C(=O)N[C@@H](Cc1c[nH]c2ccccc12)C(=O)NCC(=O)N[C@@H](CC(C)C)C(N)=O [compound 217] (Ac-RPM[Dap]MRR[Bip]LAKWGL-NH2) |  | 12.5 (≈ 23.3 µg/mL)
12 | CSCC[C@H](NC(=O)[C@H](CN)NC(=O)[C@H](CCSC)NC(=O)[C@@H]1CCCN1C(=O)[C@H](CCCNC(=N)N)NC(C)=O)C(=O)N[C@@H](CCCNC(=N)N)C(=O)N[C@@H](CCCNC(=N)N)C(=O)N[C@@H](Cc1ccc(-c2ccccc2)cc1)C(=O)N[C@@H](CC(C)C)C(=O)N[C@@H](CCC(=O)O)C(=O)N[C@@H](CCCCN)C(=O)N[C@@H](CCCNC(=N)N)C(=O)NCC(=O)N[C@@H](CC(C)C)C(N)=O [compound 218] (Ac-RPM[Dap]MRR[Bip]LEKRGL-NH2) | 200.0 (≈ 379 µg/mL) | 
13 | CSCC[C@H](NC(=O)[C@H](CN)NC(=O)[C@H](CCSC)NC(=O)[C@@H]1CCCN1C(=O)[C@H](CCCNC(=N)N)NC(C)=O)C(=O)N[C@@H](CCCNC(=N)N)C(=O)N[C@@H](CCCNC(=N)N)C(=O)N[C@@H](Cc1ccc(-c2ccccc2)cc1)C(=O)N[C@@H](CC(C)C)C(=O)N[C@@H](C)C(=O)N[C@@H](CCCCN)C(=O)N[C@@H](CCCNC(=N)N)C(=O)NCC(=O)N[C@@H](CC(C)C)C(N)=O [compound 219] (Ac-RPM[Dap]MRR[Bip]LAKRGL-NH2) |  | 25.0 (≈ 45.9 µg/mL)
14 | CSCC[C@H](NC(=O)[C@@H]1CCCN1C(=O)[C@H](CCCNC(=N)N)NC(C)=O)C(=O)N[C@H](C(=O)NC(C)(C)C(=O)N[C@@H](CCCNC(=N)N)C(=O)N[C@@H](CCCNC(=N)N)C(=O)N[C@@H](Cc1c[nH]c2ccccc12)C(=O)N[C@@H](CC(C)C)C(=O)N[C@@H](C)C(=O)N[C@@H](CCCCN)C(=O)N[C@@H](CCCNC(=N)N)C(=O)NCC(=O)N[C@@H](CC(C)C)C(N)=O)[C@@H](C)O [compound 220] (Ac-RPMT[Aib]RRWLAKRGL-NH2) |  | 100.0 (≈ 177 µg/mL)
15 | CSCC[C@H](NC(=O)[C@@H]1CCCCN1C(=O)[C@H](CCCNC(=N)N)NC(C)=O)C(=O)N[C@H](C(=O)N[C@@H](C)C(=O)N[C@@H](CCCNC(=N)N)C(=O)N[C@@H](CCCNC(=N)N)C(=O)N[C@@H](Cc1c[nH]c2ccccc12)C(=O)N[C@@H](CC(C)C)C(=O)N[C@@H](C)C(=O)N[C@@H](CCCCN)C(=O)N[C@@H](CCCNC(=N)N)C(=O)NCC(=O)N[C@@H](CC(C)C)C(N)=O)[C@@H](C)O [compound 221] (Ac-R[Pip]MTARRWLAKRGL-NH2) |  | 200.0 (≈ 353 µg/mL)
